By melting point is commonly meant the temperature of the solid-liquid transition.

The values below come from a melting point compilation (Tetko et al.; mined from patent text by program, amines drawn as free bases though some values may be those of a salt).

The structures appear in SMILES notation.

`COCOc1cc2c(cc1-c1cc(C=CC(=O)O)ccc1O)C(C)(C)CCC2(C)C` displayed a melting point of 101 to 103 °C. To `O=C(O)c1cccc(OC(F)(F)C(F)(F)F)c1` belongs 131 to 134 °C; to `CN(CCOc1ccccc1)[C@H]1CC[C@H](c2ccc(OCc3ccccc3)cc2)CC1`, 67 to 69 °C; to `Cc1cc2nc(OC(C)C)nc(-c3cccc(C(F)(F)F)c3)c2s1`, 106 °C. To `COCCNc1cc(-c2c(-c3cccc(C)c3)nc3cccnn23)ccn1` belongs 99 to 100 °C; to `NC(=O)c1ccc(-c2cccc3cc(COc4cccc(C(F)(F)F)c4)sc23)cc1`, 191 to 192 °C. The same measure for `CCCC(C)CC(C)(C)NC(=O)CN1C(=O)c2ccccc2C1=O` (centres undefined): 132 °C; for `CCOC(=O)c1c(C(F)(F)F)nc2ccccc2c1O`: 192 °C. `N#Cc1ccc2nc(-c3ccc(Br)o3)cn2c1` yielded a melting point of 212 to 214 °C. The same measure for `N#CN1CCC(c2nn(-c3ccccc3)c3ccc(F)cc23)CC1`: 137 to 139 °C. To `CC(=O)OC1CCC2(C)C(=CC(=O)C3C4CC(OC(C)=O)C(=O)C4(C)CCC32)C1` (centres undefined) belongs 206 °C.

For `O=C1C2=C(CCCC2)C(=O)N1c1ccc(Cl)c2c1CC(CBr)O2` (centres undefined), the melting point fell in the range of 134 to 136 °C. With `COC(=O)[C@H](Cc1ccccc1)NC(=O)[C@H](Cc1ccccc1)NC(=O)[C@H](CC(N)=O)NC(=O)OC(C)(C)C`, the melting point is 192 to 194 °C. To `Cc1c(CO)ncnc1N(C)C` belongs 46 to 48 °C; to `N#CCCNC(=O)c1cccc(-c2cccc(Oc3ccc4c(c3)CCC4)n2)c1`, 122 to 123 °C; to `COC(=O)C1=C(C)NC(C(OC)OC)=C(C(=O)OC)C1c1cccc2c(=O)c(C)c(-c3ccccc3)oc12` (centres undefined), 166 to 168 °C.

Turning to `Cc1nc(NC(=N)N)sc1C=O`, the melting point was in the range of 176 to 178 °C. The compound `C=CCc1ccc(OCc2ccc(OC)cc2)cc1` returned a melting point of 59 to 61 °C. The same measure for `CC(C)(C)CN1C(=O)[C@@H](CCO)O[C@H](c2ccccc2Cl)c2cc(Cl)ccc21` (relative stereo): 157 to 159 °C; for `Cc1cccc2ncc(NC(=O)Nc3ccc(F)cc3F)c(-c3ccccc3Cl)c12`: 218 to 220 °C. The same measure for `O=Cc1cc2c(s1)-c1ccccc1OC2C1=CCCC=C1` (centres undefined): 117 to 118 °C; for `COC1=CC(=O)C=CC1=O`: 141 to 143 °C; for `Brc1ccc(-c2ccc(Br)cc2-c2nc3ccccc3[nH]2)c(-c2nc3ccccc3[nH]2)c1`: 326 to 328 °C.

`CC1(C)NC(=O)N(CC(CSc2ccc(-c3ccc(C(F)(F)F)cc3)cc2)N(O)C=O)C1=O` (centres undefined): the melting point lay in the range of 172 to 174 °C. The same measure for `COCCn1c(C)nc2c(N)nc3ccccc3c21`: 230 to 233 °C; for `COc1cc(-c2ccc(-c3ccc(N=Nc4ccccn4)c(OC)c3)o2)ccc1N=Nc1ccccn1`: 212 to 213 °C. To `c1ccc(NCC2CCNCC2)cc1` belongs 60 to 61 °C; to `Cc1cccc(CSc2c(O)cc(-c3ccccc3)oc2=O)c1`, 139 to 140 °C. The compound `CCCc1c(OCCCOc2ccc(-c3coc(C)n3)c(OC)c2CCC)ccc2c1OC(C(=O)O)CC2` (centres undefined) displayed a melting point of 111 to 115 °C. The same measure for `CCCCC1=NC2(CCCC2)C(=O)N1Cc1ccc(-c2ccccc2S(=O)(=O)Nc2onc(C)c2C)c(CCC(C)C)c1`: 50 to 53 °C. To `CCN1C(=O)CON(C(C)=O)C1c1ccccc1` (centres undefined) belongs 130 to 132 °C; to `Cc1nc(-n2cnn(CCOC(=O)NCc3ccc(F)cc3)c2=O)sc1C(=O)NCc1cccnc1`, 149 to 150 °C; to `Cn1c2ccc(Cl)cc2c2c3ccccc3c(OCCN3CCOCC3)nc21`, 140 to 142 °C. The same measure for `CN1CCN(NC(=O)Nc2cccc3c2C(=O)c2c-3n[nH]c2-c2ccc(N3CCNCC3)cc2)CC1`: 254 °C; for `Cc1cccc(SCc2ccc3nc(NC4CCN(C)CC4)n(Cc4nc(C)ccc4O)c3c2)c1`: 202 °C.

On to `COc1cc(C=C(C)[N+](=O)[O-])cc2c1OC(C)(C)C2`, for which the melting point is 120 to 121 °C.

The compound `CN(C)C(=O)C1CN(C)c2nc3cc(F)c(F)cc3cc2C1=O` (centres undefined) returned a melting point of 206 °C. To `CC(C)n1nc(-c2c(-c3ccccc3)nn3ccc(C(=O)NC4CC4)cc23)ccc1=O` belongs 184 to 185 °C; to `CC1=CC(=O)C(C)=C2CC(C)(C)N=C12`, 107 to 109 °C. The compound `CC(C)n1cc(-c2c(-c3ccc(F)cc3)nn3ccncc23)ccc1=O` registered a melting point of 214 to 215 °C. The same measure for `CCc1cc2c(s1)-n1c(C)nnc1C(CCCCC(=O)Nc1ccccc1)N=C2c1ccc(Cl)cc1` (centres undefined): 238 to 240 °C.

In turn, `NC(=O)c1c(Cl)c(-c2ccccc2)n2c1CN(S(=O)(=O)Nc1ccccc1)CC2` showed a melting point of 207 to 208 °C. `CC1CC2=C(CCC(Cc3ccc(O)cc3)C2)NC1=O` (centres undefined) came in with a melting point of 230 to 235 °C. The same measure for `COc1ccc(CCCC(C)=O)cc1S(N)(=O)=O`: 115 to 116 °C; for `CC(=O)C(=Cc1ccc(S(=O)(=O)c2ccccc2)cc1)C(C)=O`: 102 to 105 °C; for `CN(CCOc1ccc(CO)cc1)c1ncccn1`: 73 to 74 °C. The same measure for `COc1cc(N)c(Cl)cc1C(=O)NC1CN(C)N(C)C1`: 169 to 171 °C; for `CC(C)(C)c1cc2c(c(C(C)(C)C)c1)OC(=O)C2c1ccc(C(F)(F)F)cc1` (centres undefined): 127 to 128 °C; for `NC(=S)Cn1c(=O)sc2ccccc21`: 205 to 207 °C. To `Cc1cc2c(-c3cccc(-c4noc(=O)[nH]4)c3)c(CC(=O)Nc3ccc(F)cc3C(F)(F)F)c(=O)oc2cc1Cl` belongs 285 to 287 °C. Compound `CN1CCN(Cc2ccccc2)C(c2ccccc2)C1` (centres undefined) registered a melting point of 58 to 60 °C.

The compound `NCCCC(=O)NCCS(=O)(=O)O` showed a melting point of 247 °C. The same measure for `ClCc1c(Cl)c(Cl)c(Cl)c(Cl)c1CCl`: 83 to 84 °C; for `O=C(Nc1n[nH]c(=S)s1)NC(CC1CCCCC1)C(=O)NCCc1ccccc1` (centres undefined): 199 to 200 °C; for `O=S1(=O)N=C(NC2CCCC2)Nc2sc(Cl)cc21`: 280 to 282 °C. The same measure for `O=c1c2ccccc2sn1SCc1ccccc1`: 111 to 112 °C. To `C#CCOc1cc(-n2nc(C)c([N+](=O)[O-])c2C)c(F)cc1Cl` belongs 125 to 126 °C; to `COc1ccc(N2CCN(c3c(C)c(C)c4c(c3C)C(c3ccc(C)cn3)C(C)(C)O4)CC2)cc1` (centres undefined), 186 to 187 °C; to `COc1ccc2c(c1)C1=C(SCC3(CCN(CC(O)COc4ccc(F)cc4)CC3)O1)C(=O)C2=O` (centres undefined), 80 to 81 °C. `COc1ccc(CCCl)cc1O` displayed a melting point of 53 to 54 °C. The same measure for `O=c1oc2c(c(O)c1C(c1ccccc1)C1CC1)CCC2` (centres undefined): 183 to 185 °C.

Take `CCOC(=O)c1cn(N)c2cc(-n3cccc3)c(F)cc2c1=O`: the melting point fell in the range of 276 to 279 °C. The same measure for `CC(=Nc1ccc(Cl)nn1)N(C)C`: 73 °C. The same measure for `CC(C)(C)OC(=O)Nc1sc(-c2cncc(F)c2)nc1F`: 188 to 191 °C; for `CCSc1ccc(-c2coc3ccc(-c4nnc(C)o4)cc23)cc1F`: 115 to 116 °C; for `COc1ccc(Cc2nc3n(c2Cc2ccc(OC)cc2)CCS3=O)cc1` (centres undefined): 190 to 191 °C. The compound `Cc1cccnc1C(CO)COc1ccc([N+](=O)[O-])cc1` (centres undefined) yielded a melting point of 135 to 136 °C. To `COc1ccc(CC(C)NC(=O)C(F)(F)F)cc1` (centres undefined) belongs 100 to 102 °C; to `CN1CCC2(CC1)c1ccccc1C(O)c1ccccc12`, 208 to 210 °C. For `COc1ccc(-c2cc3ccccc3[nH]2)cc1NC(=S)Nc1ccc(C(=O)O)cc1`, the melting point fell in the range of 201 to 203 °C. To `COc1ccc(Nc2ccnc(Nc3cc(OC)c(OC)c(OC)c3)n2)cc1` belongs 210 °C. To `CCOC(=O)C(=CNC1CC1)C(=O)c1c(F)cc(F)c(F)c1N(Cc1ccccc1)C(C)=O` belongs 119 to 121 °C; to `CNC(=O)[C@@H]1CCN1S(=O)(=O)c1ccc(Cl)c(COc2cccc3c(-n4ccnc4)cc(C)nc23)c1Cl`, 118 °C.

`CN1C(=O)CC[C@]2(C)c3ccc(-c4cc5ccccc5s4)cc3CC[C@@H]12` registered a melting point of 247 to 250 °C.

Take `CC(=O)SCC(CC(C)C)C(=O)NCCCCCC(N)=O` (centres undefined): the melting point fell in the range of 64 to 80 °C.

`COc1cc2nc(N3CCC(=O)CC3)nc(N)c2cc1OC` came in with a melting point of 228 to 230 °C.

`C#Cc1ccc2c(c1)c(=O)c(C(=O)OCC)cn2CC`: the melting point was 185 to 187 °C. In turn, `CNc1n[nH]c(=S)n1C` came in with a melting point of 213 °C. The compound `CC(=O)Oc1c(C(C)(C)C)cc2oc(C=O)cc2c1C(C)(C)C` displayed a melting point of 160 °C. To `COc1cc(OC)c(C2CCN(C)C2CO)c(OC)c1` (centres undefined) belongs 82 to 85 °C; to `COc1ccccc1Oc1c(N)nc(N2CCOCC2)nc1OCCO`, 136 to 138 °C; to `CC(C)(C)OC(=O)NCCNC(=O)c1n[nH]cc1-c1ccccc1`, 71 °C. To `Cc1cncc(C)c1-c1c(C)cc(N=C(c2ccccc2)c2ccccc2)cc1C` belongs 44 to 45 °C. To `CS(=O)(=O)Nc1ccc(OCCCCl)cc1` belongs 120 to 122 °C.

The compound `COc1cc(C(=O)c2ccc(OCc3ccccc3)cc2N)cc(OC)c1OC` yielded a melting point of 79 to 80 °C. To `Cn1c(=O)cc(-c2cccc(Cl)c2)c2cc(C(=O)c3ccc(Cl)cc3)ccc21` belongs 155 °C.

Consider `CCOC(=O)COc1cc(-c2nn(C)c(C(F)(F)F)c2Cl)c(F)cc1Cl`, for which the melting point fell in the range of 130 to 131 °C. The same measure for `Cc1nc(Cl)c2c(c1O)COC2(C)C`: 251 °C; for `CC1OC2(CCN(c3nc(=O)c4cc(C(F)(F)F)cc([N+](=O)[O-])c4s3)CC2)OC1C` (centres undefined): 205 to 207 °C.
